Measurements reported in article PMC5454942, “The Potential of Triterpenoids from Loquat Leaves (Eriobotrya japonica) for Prevention and Treatment of Skin Disorder” (International Journal of Molecular Sciences, 2017).
Converted amounts (≈) assume the structure as drawn. “And” between values parts separate entries of the source, which are not always exact repeats. Equal entries are not always repeated. Where two headings read alike, the source gives them in different places.

Experiments:
[1] = Cell viability of B16 melanoma cells (MTT); conditions: mouse
Experimental: (§1) This assay was performed as described by Arung et al.. The mouse melanoma cell line B16 was obtained from the Riken Bioresource Center Cell Bank (Tsukuba, Japan). The B16 melanoma cells were maintained in Eagle’s Minimal Essential Medium (EMEM, Nissui Chemical, Tokyo) supplemented with 10% (v/v) fetal bovine serum (FBS; Gibco, Carlsbad, CA, USA) and 0.09 mg/mL theophylline (Sigma-Aldrich, St. Louis, MO, USA). […] After 24 h, test samples were dissolved in DMSO (<0.2% per well) and sample solution were added to each well. Arbutin (Tokyo Kasei Kogyo, Tokyo) was used as a positive control. The cells were incubated for an additional 48 h, and then the medium was replaced with fresh medium containing each sample again. After 24 h, the melanin content and the cell viability were measured using a microplate reader (BioTek-ELX800, BioTek Instruments, Winooski, VT, USA) at 405 nm and 570 nm, respectively. Cell viability was measured using the MTT (3-(4,5-dimethylthiazol-2-yl)-2,5-diphenyltetrazolium bromide) method.

B16 melanoma cells [2] = assay: Cell viability of B16 melanoma cells (MTT); conditions: for Inhibition rate (100% − cell viability): B16 cells
Experimental: as §1

Propionibacterium acnes = assay: Anti-bacterial assay (growth inhibition, MIC/MBC by broth microdilution); format: cell-based; conditions: for MBC / MIC: P. acnes, broth microdilution; for MBC: read-out: MBC; for inhibition at 100 µg/mL: read-out: Inhibition Rate (P. acnes growth); for activity against P. acnes (in words): at their maximum solubility
Experimental: The antibacterial assay was based mostly on the methods described by Tanaka et al. with slight modification. Propionibacterium acne (NBRC 107605) was used for the antibacterial assay. A single colony of the test strain was taken and 5 mL of Gifu anaerobic medium (GAM) broth (Nissui, Tokyo) was added to it. This culture was incubated at 37 °C for 30 h. It was then added to the bacterial suspension to prepare a bacterial concentration at 10^5 CFU/mL. The bacterial solution was used for the subsequent antibacterial assay. Each compound was dissolved in DMSO, and benzalkonium chloride (Wako) was used as a positive control. The plate was incubated at 37 °C for 30 h. Finally, bacterial growth was measured by a microplate reader at 630 nm. The MIC and MBC were evaluated by the standard broth microdilution method.

RBL-2H3 cells [3] = assay: β-hexosaminidase release from IgE-stimulated RBL-2H3 mast cells; format: cell-based, rat; conditions: for IC50: IgE-stimulated RBL-2H3 cells, read-out: IC50 (β-hexosaminidase release)
Experimental: (§2) The anti-allergy assay was based mostly on the methods described by Zhu et al. and Yun et al. with slight modification. Rat basophilic leukemia (RBL-2H3) cells were obtained from the Riken Bio-resource Center Cell Bank (Tsukuba, Japan). RBL-2H3 cells were incubated in EMEM medium containing 10% FBS and 1% antibiotics–antimycotics at 37 °C. The cells were seeded on a 96-well plate (2 × 10^5 cells/well). After 24 h of incubation, the medium was supplemented with 0.5 μg/mL anti-DNP (dinitrophenol) mouse immunoglobulin E (IgE) (Sigma-Aldrich). After an additional 24 h of incubation, the medium was replaced with 100 μL of Tyrode buffer. The sample dissolved in DMSO (<0.5% per well) was added, and the cell plate was incubated again for 30 min, then replaced with 100 μL of tyrode buffer containing 50 μg/mL DNP-bovine serum albumin (BSA) (Invitrogen, Carlsbad, CA, USA). After 1 h of incubation, 50 μL of the supernatant was collected from each well and mixed with 50 μL of substrate solution (p-nitrophenyl-N-acetyl-β-glucosaminide, 2 mM; Sigma-Aldrich) in a new 96-well plate. The mixture was incubated at room temperature on a shaker for 3 h. Finally, 100 μL of stop solution was added, and the absorbance was read at 405 nm. A parallel MTT experiment was performed to measure the cell viability. The MTT experiment was done exactly as described.

[4] = Cell viability of RBL-2H3 cells (parallel MTT); format: cell-based, rat; conditions: rat
Experimental: as §2

mushroom tyrosinase = assay: Tyrosinase inhibition assay; format: biochemical; conditions: for inhibitory effect on tyrosinase (in words): L-DOPA as substrate; for inhibitory activity on tyrosinase (in words): L-tyrosine as substrate, relatively high concentrations
Experimental: Tyrosinase inhibition activity was evaluated by using L-tyrosine and L-DOPA as substrates, as described. Briefly, 333 μL of 2.5 mM L-tyrosine or L-DOPA solution (Sigma-Aldrich) was mixed with 600 μL of 0.1 M phosphate buffer (pH 6.8) and incubated at 25 °C. Then, 33 μL of the sample solution (dissolved in DMSO in various concentrations) and 33 μL of 1380 units/mL mushroom tyrosinase (Sigma-Aldrich) were added to the mixture. The optical density was measured at 475 nm up to the appropriate time. Kojic acid (Sigma-Aldrich) was used as the positive control; the final concentration is 3.3 μg/mL.

B16 melanoma cells [5] = assay: Anti-melanogenesis assay (melanin content); format: cell-based, mouse; conditions: for inhibition at 1 µg/mL: 1 μg/ml; for inhibition at 10 µg/mL: 10 μg/ml
Experimental: as §1

[6] = system: inflammation induced by 12-O-tetradecanoylphorbol-13-acetate (TPA); set-up: method as in PMID 16204964, PMID 14745168; conditions: mice; cited from earlier work
[7] = system: Epstein–Barr virus early antigen; set-up: method as in PMID 16204964, PMID 14745168; conditions: cited from earlier work
RBL-2H3 cells [8] = assay: Cell viability of RBL-2H3 cells (parallel MTT); format: cell-based, rat; conditions: 25 μg/ml, RBL-2H3 cells
Experimental: as §2

NHDF cells = assay: Skin type I collagen synthesis promoting assay (ELISA, with MTT); format: cell-based, human; conditions: fold of control
Experimental: The assay for measuring the promotion of skin collagen synthesis was described by Kishikawa et al.. Adult NHDF cells (Lonza, Tokyo) were routinely maintained in 10% FBS and 1% antibiotic-antimycotic (Invitrogen) in Dulbecco’s modified Eagle’s medium (DMEM, Wako). After growing to confluence, cells at a density of 5 × 10^3 cells/well were seeded on 96-well plates for 24 h before the treatment. The medium was replaced with a mixture of 1 μL of sample solution (DMSO < 0.5% per well) and 99 μL of DMEM supplemented with 0.5% FBS. After 72 h of cultivation, the amount of collagen in the medium was measured using a human type I collagen enzyme-linked immunosorbent assay (ELISA) kit (ACEL, Kanagawa, Japan). The amount of collagen production was calculated using a standard curve prepared by measurement by the same ELISA. The cells remaining in the 96-well plate were subjected to an MTT assay. Ascorbic acid (100 μM, Wako) was used as a positive control.

[9] = Cutibacterium acnes, read-out: MIC
[10] = Cutibacterium acnes, concentration 100 μg/mL
[11] = Rattus norvegicus, RBL-2H3, 25 μg/mL, read-out: Inhibition Rate (β-hexosaminidase release)
[12] = 25 μg/ml, RBL-2H3 cells, read-out: Cell viability
[13] = Mus musculus, B16 cells, read-out: Inhibition rate (100% − melanin synthesis)
[14] = Mus musculus, 2.5 μg/ml, B16 cells, read-out: Inhibition rate (100% − melanin synthesis)
[15] = Mus musculus, 5 μg/ml, B16 cells, read-out: Inhibition rate (100% − melanin synthesis)
[16] = Mus musculus, 20 μg/ml, B16 cells, read-out: Inhibition rate (100% − melanin synthesis)
[17] = Mus musculus, B16 melanoma cells, read-out: IC50 (melanin synthesis)
[18] = Mus musculus, B16 melanoma cells, read-out: IC50 melanin

Structure (SMILES)	Inhibition rate (100% − cell viability) (B16 melanoma cells [2]; 1 μg/ml) [%]	Inhibition rate (100% − cell viability) (B16 melanoma cells [2]; 2.5 μg/ml) [%]	Inhibition rate (100% − cell viability) (B16 melanoma cells [2]; 5 μg/ml) [%]	Inhibition rate (100% − cell viability) (B16 melanoma cells [2]; 10 μg/ml) [%]	Inhibition rate (100% − cell viability) (B16 melanoma cells [2]; 20 μg/ml) [%]	MBC (Propionibacterium acnes; Cutibacterium acnes) [µg/mL]	MIC (Propionibacterium acnes; [9]) [µg/mL]	inhibition at 100 µg/mL (Propionibacterium acnes; [10]) [%]	activity against P. acnes (in words) (Propionibacterium acnes)	inhibition at 25 µg/mL (RBL-2H3 cells [3]; [11]) [%]	viability at 25 μg/ml [4, 12] [%]	inhibitory effect on tyrosinase (in words) (mushroom tyrosinase)	inhibitory activity on tyrosinase (in words) (mushroom tyrosinase)	S.I (selectivity index, CC50 value/IC50 value) (B16 melanoma cells [5]; B16 melanoma cells)	inhibition at 1 µg/mL (B16 melanoma cells [5]; [13]) [%]	inhibition at 2.5 µg/mL (B16 melanoma cells [5]; [14]) [%]	inhibition at 5 µg/mL (B16 melanoma cells [5]; [15]) [%]	inhibition at 10 µg/mL (B16 melanoma cells [5]; [13]) [%]	IC50 (B16 melanoma cells [5]; [17]) [µM]	IC50 (B16 melanoma cells [5]; [18]) [µg/mL]	further results
CC1(C)CC[C@]2(C(=O)O)CC[C@]3(C)C(=CC[C@@H]4[C@@]5(C)CC[C@H](O)C(C)(C)[C@@H]5CC[C@]43C)[C@@H]2C1 [Compound 2, Oleanolic acid]	4.9 ± 4.6	7.8 ± 4.1	17.0 ± 6.2	27.4 ± 7.0	54.9 ± 2.3	200 (≈ 438 µM)	100 (≈ 219 µM)	100.4 ± 0.8	active	5.8 ± 6.7	102 ± 6.2	no inhibitory effect	moderate inhibitory activity	1.5	9.5 ± 4.6	27.8 ± 4.8	33.5 ± 6	45.9 ± 1.5	26.8	12.2	CC50 at 72 h ([1]; B16 melanoma cells): 18.2 µg/mL and 39.9 µM; inhibition at 20 µg/mL (B16 melanoma cells [5]; [16]): 58.6 ± 2.3%
C=C(C)[C@@H]1CC[C@]2(C(=O)O)CC[C@]3(C)[C@H](CC[C@@H]4[C@@]5(C)CC[C@H](O)C(C)(C)[C@@H]5CC[C@]43C)[C@@H]12 [Compound 4, Betulinic acid]	1.2 ± 12.0	20.8 ± 5.2	35.9 ± 5.2	58.4 ± 14.1	68.1 ± 11.4	–	–	< 0	–	29.4 ± 8.1	97.9 ± 10.6	no inhibitory effect	moderate inhibitory activity	1.4	35.4 ± 0.5	44.8 ± 1.4	49.7 ± 3.1	54 ± 3.3	11.8	5.3	CC50 at 72 h [1]: 7.6 µg/mL and 16.7 µM; inhibition at 0.5 µg/mL (B16 melanoma cells [5]; Mus musculus, 0.5 μg/ml, B16 cells, read-out: Inhibition rate (100% − melanin synthesis)): 23.2 ± 1.4%
C[C@H]1[C@H](C)CC[C@]2(C(=O)O)CC[C@]3(C)C(=CC[C@@H]4[C@@]5(C)C[C@@H](O)[C@@H](O)C(C)(C)[C@@H]5CC[C@]43C)[C@H]12 [Compound 9, 3-epicorosolic acid]	–	0.0 ± 10.3	0.0 ± 11.8	3.4 ± 4.1	14.8 ± 4.1	–	–	–	–	–	–	–	–	–	–	–	–	–	–	–	CC50 cell viability (B16 melanoma cells [2]; B16 melanoma cells, MTT): > 20.0 µg/mL; CC50 (B16 melanoma cells [2]; read-out: CC50 (cell viability), B16 melanoma cells, MTT): > 42.3 µM; inhibitory activity against TPA-induced inflammation (in words) [6]: significant inhibitory activity; Inhibition Rate (P. acnes growth) (Propionibacterium acnes; concentration 100 μg/mL): – (no inhibition); Inhibition Rate (β-hexosaminidase release) (RBL-2H3 cells [3]; 1 μg/mL): 8.9 ± 5.2%; Inhibition Rate (β-hexosaminidase release) (RBL-2H3 cells [3]; 5 μg/mL): 33.7 ± 6.9%; Inhibition Rate (β-hexosaminidase release) (RBL-2H3 cells [3]; 12.5 μg/mL): 50.7 ± 3.2 %; Inhibition Rate (β-hexosaminidase release) (RBL-2H3 cells [3]; 25 μg/mL): 54.4 ± 4.9 %; IC50 (RBL-2H3 cells [3]): 14.2 µM; inhibitory activity against TPA-induced Epstein–Barr virus early antigen activation (in words) [7]: significant inhibitory activity; Cell viability (RBL-2H3 cells [8]): 98.0 ± 7.7%; Inhibition rate (100% − melanin synthesis) (B16 melanoma cells [5]; 2.5 μg/ml, B16 cells): 1.0 ± 5.4%; Inhibition rate (100% − melanin synthesis) (B16 melanoma cells [5]; 5 μg/ml, B16 cells): 0.0 ± 5.3%; Inhibition rate (100% − melanin synthesis) (B16 melanoma cells [5]; 20 μg/ml, B16 cells): 7.8± 0.9%; IC50 melanin (B16 melanoma cells [5]; B16 melanoma cells): > 20.0 µg/mL; IC50 (B16 melanoma cells [5]; B16 melanoma cells, read-out: IC50 (melanin synthesis)): > 42.3 µM; CP/CV value (collagen production %/cell viability %) (NHDF cells; 1 μg/mL): 1.2; CP/CV value (collagen production %/cell viability %) (NHDF cells; 5 μg/mL): 1.3
C[C@@H]1CC[C@]2(C(=O)O)CC[C@]3(C)C(=CC[C@@H]4[C@@]5(C)C[C@@H](O)[C@@H](O)C(C)(C)[C@@H]5CC[C@]43C)[C@@H]2[C@]1(C)O [Compound 12, euscaphic acid]	–	0.0 ± 6.9	0.0 ± 6.6	44.9 ± 2.7	91.1 ± 1.0	50 (≈ 102 µM)	50 (≈ 102 µM)	98.5 ± 1.3	active	74.5 ± 1.3	–	–	–	0.7	–	0	0	35 ± 3.6	34	16.6	CC50 at 72 h [1]: 12.5 µg/mL and 25.6 µM; inhibitory activity against TPA-induced inflammation (in words) [6]: significant inhibitory activity; MIC (Propionibacterium acnes): 50/50 μg/mL; inhibition at 1 µg/mL (RBL-2H3 cells [3]; Rattus norvegicus, RBL-2H3, 1 μg/mL, read-out: Inhibition Rate (β-hexosaminidase release)): 10.4 ± 10.8%; inhibition at 5 µg/mL (RBL-2H3 cells [3]; Rattus norvegicus, RBL-2H3, 5 μg/mL, read-out: Inhibition Rate (β-hexosaminidase release)): 37.7 ± 3.9%; inhibition at 12.5 µg/mL (RBL-2H3 cells [3]; Rattus norvegicus, RBL-2H3, 12.5 μg/mL, read-out: Inhibition Rate (β-hexosaminidase release)): 67 ± 1.8%; IC50 (RBL-2H3 cells [3]; Rattus norvegicus): 15.8 µM; inhibitory activity against TPA-induced Epstein–Barr virus early antigen activation (in words) [7]: significant inhibitory activity; viability at 25 μg/ml [4]: 93.9 ± 7.3%; inhibition at 20 µg/mL (B16 melanoma cells [5]; [16]): 58.8%
